# Assay results as given in article PMC3293798, “Amino Acid Residues Contributing to Function of the Heteromeric Insect Olfactory Receptor Complex” (PLoS ONE, 2012).
# Changes are numbered by the printed parent chain.
# Key:
# Assay type in all cases: cell-based
# BmOr-1-BmOrco [1] = target: T1, BmOr-1-BmOrco (Bombyx mori, UniProt Q5WA61); assay: two-electrode voltage clamp, Xenopus oocytes, dose-response
# T1 construct: full-length cRNAs from modified pSPUTK vector, co-injected (25 ng each) in Xenopus laevis oocytes; heteromer of unknown stoichiometry; with Odorant receptor coreceptor
# T1 sequence (Q5WA61 1-430): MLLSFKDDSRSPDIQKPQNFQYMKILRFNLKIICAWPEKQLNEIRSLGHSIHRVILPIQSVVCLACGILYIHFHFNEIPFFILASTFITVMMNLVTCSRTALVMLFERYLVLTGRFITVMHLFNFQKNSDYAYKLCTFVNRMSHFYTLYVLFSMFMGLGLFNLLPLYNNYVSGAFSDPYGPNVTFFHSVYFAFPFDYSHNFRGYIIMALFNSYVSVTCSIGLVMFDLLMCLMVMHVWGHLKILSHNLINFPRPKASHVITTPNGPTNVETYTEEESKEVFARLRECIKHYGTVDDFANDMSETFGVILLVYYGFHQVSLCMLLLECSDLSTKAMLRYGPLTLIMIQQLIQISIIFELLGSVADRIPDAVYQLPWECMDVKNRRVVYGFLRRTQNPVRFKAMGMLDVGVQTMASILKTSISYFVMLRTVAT
# T1 sequence (Q7YT34 1-472 partner): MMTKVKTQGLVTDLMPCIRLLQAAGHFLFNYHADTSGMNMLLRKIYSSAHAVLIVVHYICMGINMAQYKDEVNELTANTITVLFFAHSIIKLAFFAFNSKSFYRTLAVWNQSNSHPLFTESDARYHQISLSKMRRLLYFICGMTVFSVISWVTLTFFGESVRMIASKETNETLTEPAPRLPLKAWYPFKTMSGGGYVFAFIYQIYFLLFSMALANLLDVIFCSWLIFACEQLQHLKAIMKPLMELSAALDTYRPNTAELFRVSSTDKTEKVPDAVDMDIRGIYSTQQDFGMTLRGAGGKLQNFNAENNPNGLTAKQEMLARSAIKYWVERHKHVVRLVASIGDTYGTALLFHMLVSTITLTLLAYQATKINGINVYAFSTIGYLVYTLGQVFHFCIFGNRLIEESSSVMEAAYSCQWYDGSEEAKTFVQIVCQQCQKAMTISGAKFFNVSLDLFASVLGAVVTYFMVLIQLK
# BmOr-1-BmOrco [2] = target: T2, BmOr-1-BmOrco (Bombyx mori, UniProt Q5WA61, E356C); assay: as above
# T2 construct: full-length cRNAs from modified pSPUTK vector, co-injected (25 ng each) in Xenopus laevis oocytes; heteromer of unknown stoichiometry; with Odorant receptor coreceptor
# T2 sequence (Q5WA61 1-430 E356C): T1 sequence (Q5WA61 1-430) with E356C
# T2 sequence (Q7YT34 1-472 partner): T1 sequence (Q7YT34 1-472 partner)
# BmOr-1-BmOrco [3] = target: T1, BmOr-1-BmOrco; assay: two-electrode voltage clamp, Xenopus oocytes, bombykol response after MTSET; conditions: covalent; Cys modification of native Cys suggested; 60 s pretreatment; bombykol 1 µM
# [4] = target: T3, Or22a with Drosophila Orco (Drosophila melanogaster, UniProt P81909); assay: two-electrode voltage clamp, Xenopus oocytes, current-voltage curves; conditions: agonist; 1 mM odorant
# T3 construct: full-length cRNAs co-injected in Xenopus laevis oocytes; heteromer of unknown stoichiometry; with Odorant receptor coreceptor
# T3 sequence (P81909 1-397): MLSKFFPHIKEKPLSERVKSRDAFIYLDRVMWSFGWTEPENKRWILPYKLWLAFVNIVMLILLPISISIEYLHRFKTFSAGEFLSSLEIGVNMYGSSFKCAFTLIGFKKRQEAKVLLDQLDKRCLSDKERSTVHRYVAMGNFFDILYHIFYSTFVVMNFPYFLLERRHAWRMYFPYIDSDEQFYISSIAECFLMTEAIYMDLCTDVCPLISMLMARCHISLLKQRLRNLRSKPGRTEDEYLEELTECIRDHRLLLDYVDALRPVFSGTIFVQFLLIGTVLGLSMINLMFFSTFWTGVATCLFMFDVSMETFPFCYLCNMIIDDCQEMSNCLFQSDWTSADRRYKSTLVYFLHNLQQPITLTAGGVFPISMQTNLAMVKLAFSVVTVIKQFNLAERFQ
# T3 sequence (Q9VNB5 1-486 partner): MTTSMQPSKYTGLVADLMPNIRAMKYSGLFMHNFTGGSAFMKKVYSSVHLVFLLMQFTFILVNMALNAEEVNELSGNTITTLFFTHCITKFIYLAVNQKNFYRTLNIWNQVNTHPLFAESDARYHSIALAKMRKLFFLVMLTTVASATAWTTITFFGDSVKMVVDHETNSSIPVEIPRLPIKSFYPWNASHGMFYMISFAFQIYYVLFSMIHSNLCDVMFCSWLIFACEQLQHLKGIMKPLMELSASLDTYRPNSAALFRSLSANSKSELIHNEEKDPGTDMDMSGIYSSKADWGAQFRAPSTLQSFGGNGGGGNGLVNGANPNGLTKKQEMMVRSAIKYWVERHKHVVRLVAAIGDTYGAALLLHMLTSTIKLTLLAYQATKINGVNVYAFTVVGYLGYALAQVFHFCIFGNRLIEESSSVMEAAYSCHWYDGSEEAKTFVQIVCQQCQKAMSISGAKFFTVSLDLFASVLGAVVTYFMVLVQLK
# [5] = target: T4, Or47a with Drosophila Orco (Drosophila melanogaster, UniProt P81921); assay: as above; conditions: agonist; 1 mM odorant
# T4 construct: full-length cRNAs co-injected in Xenopus laevis oocytes; heteromer of unknown stoichiometry; with Odorant receptor coreceptor
# T4 sequence (P81921 1-385): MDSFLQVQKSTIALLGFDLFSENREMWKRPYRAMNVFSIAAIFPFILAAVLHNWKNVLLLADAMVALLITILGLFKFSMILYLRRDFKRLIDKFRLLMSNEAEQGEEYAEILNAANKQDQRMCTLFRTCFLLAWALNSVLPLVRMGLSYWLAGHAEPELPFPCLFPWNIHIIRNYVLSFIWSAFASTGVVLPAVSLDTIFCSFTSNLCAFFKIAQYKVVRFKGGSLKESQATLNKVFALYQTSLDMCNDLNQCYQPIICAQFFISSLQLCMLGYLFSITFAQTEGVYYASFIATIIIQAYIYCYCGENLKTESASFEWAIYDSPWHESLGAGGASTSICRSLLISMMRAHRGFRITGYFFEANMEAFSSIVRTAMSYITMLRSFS
# T4 sequence (Q9VNB5 1-486 partner): T3 sequence (Q9VNB5 1-486 partner)
compound,measurement,setting,value
CCC/C=C\C=C\CCCCCCCCCO [Bombykol],EC50,BmOr-1-BmOrco [1],190 nM
same,EC50,BmOr-1-BmOrco [2],300 nM
C[N+](C)(C)CCSS(C)(=O)=O [MTSET],% reduction of bombykol response at 2.5 mM,BmOr-1-BmOrco [3],46%
CCCC(=O)OCC [ethyl butyrate],"two-electrode voltage clamp, Xenopus oocytes, current-voltage curves",[4],"channels gated by their cognate ligands (ethyl butyrate, pentyl acetate"
CCCCCOC(C)=O [pentyl acetate],"two-electrode voltage clamp, Xenopus oocytes, current-voltage curves",[5],"channels gated by their cognate ligands (ethyl butyrate, pentyl acetate"
